Where two headings read alike, the source gives them in different places.

Series [1] relates to hot flashes. The series is described as follows: Case report: risperidone for hot flashes in a perimenopausal case. The series is classed as in vivo, human. As for the experimental part: Patient 3 was a person who was diagnosed with perimenopause, based on increased levels of follicle-stimulating hormone, increased variability in menstrual cycle length, development of hot flashes, and insomnia. The patient had had these symptoms for two years. […] Risperidone treatment (1 mg per night) was started. At that time, the patient was experiencing seven hot flashes per day. […] With their permission, risperidone was tapered off over two days, and the hot flashes developed again three days later.

A further series concerns dopamine receptors. The conditions noted are these: cited from earlier work.
The next series has as its system serotonin receptors. The note with it: cited from earlier work.
The next series has as its system α-adrenergic receptors. The note with it: cited from earlier work.
A further series concerns histamine receptors. The note with it: cited from earlier work.
The subject of series [2] is cholinergic muscarinic receptors. The note with it: cited from earlier work.
The target of another series is D1 dopamine receptor (Homo sapiens, UniProt P21728). The note with it: cited from earlier work.
Sequence of D1 dopamine receptor (P21728 whole entry): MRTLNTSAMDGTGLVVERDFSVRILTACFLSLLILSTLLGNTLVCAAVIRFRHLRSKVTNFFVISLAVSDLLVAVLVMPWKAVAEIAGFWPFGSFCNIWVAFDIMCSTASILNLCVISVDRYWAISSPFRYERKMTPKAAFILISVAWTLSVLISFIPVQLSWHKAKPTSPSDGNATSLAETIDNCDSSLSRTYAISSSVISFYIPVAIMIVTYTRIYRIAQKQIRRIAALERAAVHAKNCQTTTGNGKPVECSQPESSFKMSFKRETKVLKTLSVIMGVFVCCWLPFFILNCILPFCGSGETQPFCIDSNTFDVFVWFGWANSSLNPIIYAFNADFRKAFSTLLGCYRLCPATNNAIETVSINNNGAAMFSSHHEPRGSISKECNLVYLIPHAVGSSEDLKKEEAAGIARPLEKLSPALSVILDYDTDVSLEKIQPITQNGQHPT
For another series, the target named is D2 receptors (Homo sapiens, UniProt P14416). The note with it: cited from earlier work.
Sequence of D2 receptors (P14416 whole entry): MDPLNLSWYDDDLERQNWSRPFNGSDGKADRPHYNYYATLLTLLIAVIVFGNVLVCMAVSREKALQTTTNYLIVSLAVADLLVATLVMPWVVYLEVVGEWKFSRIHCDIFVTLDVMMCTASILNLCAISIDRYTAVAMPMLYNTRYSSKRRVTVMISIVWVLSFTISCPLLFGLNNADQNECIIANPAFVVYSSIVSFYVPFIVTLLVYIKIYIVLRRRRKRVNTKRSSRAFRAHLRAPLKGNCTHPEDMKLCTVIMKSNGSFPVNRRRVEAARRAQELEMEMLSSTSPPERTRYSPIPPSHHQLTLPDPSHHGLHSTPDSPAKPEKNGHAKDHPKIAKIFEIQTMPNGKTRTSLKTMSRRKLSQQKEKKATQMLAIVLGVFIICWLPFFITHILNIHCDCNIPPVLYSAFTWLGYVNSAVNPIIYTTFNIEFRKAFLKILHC
The subject of series [3] is hot flashes. The note with it: men and women; placebo 20 percent; cited from earlier work.
For series [4], the system named is hot flashes. The series is described as follows: Case report: risperidone for hot flashes in a case with hysterectomy. The format is in vivo, human. The note with it: for response of hot flashes to earlier treatments: person, PREMARIN 0.625 mg/day, PROZAC 20 mg/day, TOFRANIL 20 mg/day, each for 1-2 months. As for the experimental part: A person was admitted to the hospital in December of 2004 due to hot flashes, hypertension, and restlessness. They had been told that they were suffering from essential hypertension for 16 years and had taken anti-hypertension medications for several years. However, their blood pressure still fluctuated and frequently dropped below critical level after taking sublingual adalate (10 mg) for sudden onsets of high blood pressure. They had no history of psychiatric or systemic diseases, except for a total abdominal hysterectomy. On admission, it was observed that their hot flash attacks occurred many times a day, lasting a few minutes and was usually followed by high blood pressure up to 180-200/84-96 mmHg, general shivers, and anxiety for 20-60 minutes. Such clinical symptoms started and grew progressively worse.
[…] biochemical and hematological results, such as sodium and potassium levels, 140 mmol/L and 4.0 mmol/L, respectively, were all within normal ranges. […] The plasma adrenaline, nor-adrenaline, VMA, epinephrine, and dopamine levels as well as thyroid hormones, including T3, T4, and TSH, were also normal.
Because estrogen withdrawal may alter the thermoregulatory set-point located in the hypothalamus, by increasing the sensitivity of hypothalamic 5-HT2A receptor, a regimen of a 5-HT2A antagonist may provide an effective therapy for symptoms of hormonal variations, such as hot flashes. Thus, the patient was treated with risperidone (2 mg/day). […] Thereafter, the dosage of anti-hypertension drugs was reduced. With the patient's permission, risperidone therapy was discontinued and hot flashes reoccurred within 2-3 days after discontinuing the treatment. The symptoms were again alleviated 3-4 days after resuming risperidone treatment.

Series [5] relates to hot flashes. The note with it: pilot trials; cited from earlier work.
The subject of series [6] is hot flashes. The series is described as follows: Case report: risperidone for residual hot flashes in a case with hormone replacement therapy. The series is classed as in vivo, human. From the text: Patient 4 was a person who had developed hot flashes, with a frequency of once per hour, palpitation, insomnia, headache, restlessness, and unstable blood pressure for over seven years. Initially, the patient visited a psychiatrist for their sleep disorder and a cardiovascular specialist for their high blood pressure. A year later, because of intolerable hot flashes and other menopausal symptoms, they received hormone replacement therapy (DIVINA®). Although their hot flashes were reduced to twice per day, headaches persisted and their blood pressure fluctuated from 180 to 210/110 to 90 mm Hg despite treatment with anti-hypertension drugs. The patient was started on risperidone treatment, 1 mg at bedtime for the first two days, followed by 2 mg per night, for residual hot flashes.

For series [7], the system named is hot flashes. The series is described as follows: Case report: risperidone for hot flashes of natural menopause. The series is classed as in vivo, human. The source says: Patient 2 was a person who began developing intolerable hot flashes and night sweats after natural menopause that occurred seven years ago. […] One month after discontinuing hormone replacement therapy, they developed hot flashes up to ten times per day, night sweats up to three times per night that disrupted their sleep, and headaches. The patient then sought neurological consultation. The patient also suffered from headaches twice per day and fluctuating blood pressure. […] In addition, they slept well and their blood pressure stabilized. To assess the relationship between risperidone therapy and the resolution of hot flashes, risperidone was tapered off over 2 days. The patient experienced hot flashes and night sweats again two days after risperidone treatment was completely discontinued.

The test system of series [8] is hot flashes. The note with it: cited from earlier work; for minimizing occurrence and severity of hot flashes versus placebo: randomized clinical trials.
In another series the target is D2 dopamine receptor (Homo sapiens, UniProt P14416). The note with it: serial PET scans; cited from earlier work.
Sequence of D2 dopamine receptor (P14416 whole entry): as above
Series [9] concerns hot flashes. The note with it: cited from earlier work.
Series [10] concerns hot flashes. The conditions noted are these: other pilot evaluations; compared with venlafaxine and paroxetine; cited from earlier work.

Take estrogen: the “response to estrogen therapy” value in the series on hot flashes [1] (perimenopausal person) is “responded well”.

As to `O=C1Cc2cc(CCN3CCN(c4nsc5ccccc45)CC3)c(Cl)cc2N1` [ziprasidone], the affinity result is “high affinity” in the series on dopamine receptors, “high affinity” in the series with serotonin receptors, “high affinity” in the series with α-adrenergic receptors and “moderate affinity” with histamine receptors.

Regarding `O=C1CCc2ccc(OCCCCN3CCN(c4cccc(Cl)c4Cl)CC3)cc2N1` [aripiprazole], the affinity result in series [2] is given as “no appreciable affinity”; in the series on α-adrenergic receptors, “moderate affinities”; in the series on histamine receptors it was “moderate affinities”.

In the case of `CN(C)CCOC1=Cc2ccccc2Sc2ccc(Cl)cc21` [zotepine], the affinity result on D1 dopamine receptor and on D2 receptors was “high affinity” in each case.

On to `CC(=O)O[C@]1(C(C)=O)CC[C@H]2[C@@H]3C=C(C)C4=CC(=O)CC[C@]4(C)[C@H]3CC[C@@]21C` [megestrol acetate], for which the “reduction in self-reported hot flash frequency” value in the series with hot flashes [3] is on record as approximately 80%.

Turning to `CN(C)CCCN1c2ccccc2CCc2ccccc21.Cl` [TOFRANIL®], the “response of hot flashes to earlier treatments” value in the series with hot flashes [4] is “limited success”.

As for `NCC1(CC(=O)O)CCCCC1` [gabapentin], in the series on hot flashes [5], the “reduction of the incidence of hot flashes” value is on record as 42%-70%.

Take `Cc1nc2n(c(=O)c1CCN1CCC(c3noc4cc(F)ccc34)CC1)CCCC2` [risperidone]: the “associated symptoms (palpitation, anxiety)” value in the series with hot flashes [4] (risperidone 2 mg/day) was “improved significantly”. In the series with hot flashes [4] (risperidone 2 mg/day, after three days of treatment, before: many times a day), the hot flash frequency result is on record as “reduced markedly to a frequency of once per 1-2 weeks”. In addition, the “time to reoccurrence of hot flashes after discontinuing treatment” value in the series on hot flashes [4] (risperidone discontinued) was 2 to 3 days. Besides, the “time to alleviation of symptoms after resuming treatment” value in the series on hot flashes [4] (risperidone resumed) was in the range of 3 to 4 days. Also, the residual hot flashes result with hot flashes [6] (risperidone 1 mg at bedtime for two days, then 2 mg per night, three days after start) is “completely eliminated”. Also, the blood pressure entry in the series on hot flashes [6] (risperidone 1 mg then 2 mg per night) is recorded as “stabilized within the normal range”; in the series with hot flashes [7] (risperidone 2 mg per day) it was “stabilized”. Besides, the entries for the “hot flashes after resuming treatment” value in the series with hot flashes [7] (risperidone 2 mg daily resumed) and with hot flashes [1] (risperidone 1 mg daily resumed) were “has not suffered another hot flash since” and “no longer experienced hot flashes”, respectively. Moreover, the sleep entry in the series on hot flashes [7] (risperidone 2 mg per day) was “slept well”. For the same molecule, the “occurrence of hot flashes” value with hot flashes [7] (risperidone 2 mg per day, by day 7) is reported as “completely eliminated”; in the series on hot flashes [7] (risperidone 2 mg per day, two days after start, before: up to ten times per day), “reduced markedly”. Also, the “time to return of hot flashes and night sweats after treatment completely discontinued” value with hot flashes [7] (risperidone tapered off over 2 days) is on record as “two”. Besides, the “hot flashes at decreased dosage” value with hot flashes [1] (risperidone 0.25 mg or less per day, three months later) is “still markedly eliminated”. Moreover, the “quality of sleep and life” value in the series on hot flashes [1] (risperidone 1 mg daily resumed) is “improved”. Further, in the series on hot flashes [1] (risperidone 1 mg per night, three days after start, before: seven hot flashes per day), the “frequency and intensity of hot flashes” value is “markedly reduced”. Also, in the series with hot flashes [1] (risperidone tapered off over two days), the “time to return of hot flashes after tapering off” value was “three”.

Regarding `CNCCC(Oc1ccc(C(F)(F)F)cc1)c1ccccc1` (stereo not drawn) [Fluoxetine], the “response of hot flashes to earlier treatments” value in the series on hot flashes [4] is recorded as “limited success”. For the same molecule, the “reduction in hot-flash scores” value with hot flashes [8] (20 mg/day, placebo 36%, P=0.02) is 50%.

Consider `COc1ccc(C(CN(C)C)C2(O)CCCCC2)cc1` (stereo not drawn) [venlafaxine], for which the “reduction in hot-flash scores” value in the series with hot flashes [8] (low-dose (37.5 mg/day), placebo 27%) was 37%; in the series with hot flashes [8] (moderate and high doses (75 and 150 mg/day)), 61%. Further, in the series with hot flashes [8], the “minimizing occurrence and severity of hot flashes versus placebo” value is given as “more effective than placebo”.

`Fc1ccc([C@@H]2CCNC[C@H]2COc2ccc3c(c2)OCO3)cc1` [paroxetine]: the “minimizing occurrence and severity of hot flashes versus placebo” value in the series on hot flashes [8] is reported as “more effective than placebo”.

As to `OCCOCCN1CCN(C2=Nc3ccccc3Sc3ccccc32)CC1` [quetiapine], on D2 dopamine receptor, the “dissociation from the D2 receptor” value is recorded as “rapidly disassociates”.

Take `Clc1cccc(Cl)c1N=C1NCCN1` [clonidine]: in the series with hot flashes [9] (common adverse effects in clinical trials), the adverse effects result was “dry mouth, dizziness, and blurred vision”. Besides, the “difference from placebo effect, self-reported hot flash frequency” value in the series on hot flashes [9] (men, double blind cross over study) is listed as “not statistically significant”. Besides, the “efficacy against hot flashes versus placebo” value in the series on hot flashes [9] (randomized clinical trials) is on record as “moderately more efficacious than placebo”. Also, in the series with hot flashes [9] (women), the “decrease of hot flash frequency greater than that seen with placebo” value is given as 10-15%.

In the case of `CN1CCN2c3ncccc3Cc3ccccc3C2C1` (stereo not drawn) [mirtazapine], the “alleviation of hot flashes” value in the series on hot flashes [10] is “alleviate hot flashes to a similar degree”.

These data come from patent US8420624B2, “Methods for treating or preventing symptoms of hormonal variations” (Yung Shin Pharm. Ind. Co., Ltd., priority 2007, dated 2013).
